From patent publication US20260198493A1, “HYDRAZIDE COMPOUND AND AGRICULTURAL/HORTICULTURAL FUNGICIDE” (Nippon Soda Co., Ltd., priority 2022, published 2026)

Legend:
[1] = test system: Glomerella cingulata; assay: Fungicidal effect test against fungi causing grape ripe rot disease; conditions: Colletotrichum gloeosporioides, 72 h, read-out: growth inhibition ratio
[2] = test system: Colletotrichum acutatum; assay: Fungicidal effect test against fungi causing apple anthracnose; conditions: 96 h, read-out: growth inhibition ratio
[3] = test system: Botrytis cinerea; assay type: cell-based; conditions: 120 h, 25 ppm by volume, Vogel medium, 20° C., five days, dark, read-out: growth inhibition ratio
[4] = test system: Botrytis cinerea; assay: Control test of cucumber gray mold (sprayed young cucumber seedlings); assay type: in vivo; conditions: 96 h, four days after inoculation; for pest or weed control at 25 ppm: 25 ppm by mass spray; for pest or weed control at 125 ppm: 125 ppm by mass spray
Experimental: Then, the drug liquid was sprayed onto young cucumber seedlings cultivated in a nursery pot (variety “Jihai”-based, cotyledon stage), and then air-dried. […] They were left still in a moist room at 20° C. Four days after inoculation, leaves of the young cucumber seedlings were visually observed, and the control value was calculated from the lesion area ratio in accordance with the following equation. [formula]

[5] = test system: Fusarium graminearum; assay: microbe, parasite or virus in culture; assay type: cell-based; conditions: 96 h, read-out: growth inhibition ratio
[6] = test system: Erysiphe graminis f.sp.tritici; assay: Control test of wheat powdery mildew disease (sprayed young wheat seedlings); assay type: in vivo; conditions: Blumeria graminis, 144 h, 125 ppm by mass spray, six days after inoculation

Cc1ccc(CN(C=O)NC(=O)c2cc(C)nnc2Oc2cccc(C3CC3)c2F)c(C)c1 [b-3, 3-(3-cyclopropyl-2-fluorophenoxy)-N′-(2,4-dimethylbenzyl)-N′-formyl-6-methylpyridazine-4-carbohydrazide]
≥ 75%: inhibition of growth at 25 ppm [1] | inhibition of growth at 25 ppm [2] | inhibition of growth at 25 ppm [3] | pest or weed control at 25 ppm [4] | pest or weed control at 125 ppm [4] | inhibition of growth at 25 ppm [5] | pest or weed control at 125 ppm [6]

Cc1cc(C(=O)NNCc2ccc(Cl)cc2Cl)c(Oc2cccc(C3CC3)c2F)nn1 [b-7]
≥ 75%: inhibition of growth at 25 ppm [1] | inhibition of growth at 25 ppm [2] | inhibition of growth at 25 ppm [3] | inhibition of growth at 25 ppm [5]

Cc1ccc(CNNC(=O)c2cc(C)ncc2Oc2cccc(C3CC3)c2F)c(C)c1 [b-8]
≥ 75%: inhibition of growth at 25 ppm [1] | inhibition of growth at 25 ppm [2] | inhibition of growth at 25 ppm [3] | inhibition of growth at 25 ppm [5]

Cc1ccc(CN(C=O)NC(=O)c2cc(C)ncc2Oc2cccc(C3CC3)c2F)c(C)c1 [b-14]
≥ 75%: inhibition of growth at 25 ppm [1] | inhibition of growth at 25 ppm [2] | inhibition of growth at 25 ppm [3] | pest or weed control at 25 ppm [4] | pest or weed control at 125 ppm [4] | inhibition of growth at 25 ppm [5] | pest or weed control at 125 ppm [6]

CCc1cc(C(=O)NN(Cc2ccc(C)cc2C)C(=O)OC)c(Oc2cccc(C3CC3)c2F)nn1 [b-27]
≥ 75%: inhibition of growth at 25 ppm [1] | inhibition of growth at 25 ppm [2] | inhibition of growth at 25 ppm [3] | pest or weed control at 25 ppm [4] | pest or weed control at 125 ppm [4] | inhibition of growth at 25 ppm [5]

COC(=O)N(Cc1ccc(C)cc1C)NC(=O)c1cc(C)ncc1Oc1cccc(C2CC2)c1 [b-32]
≥ 75%: inhibition of growth at 25 ppm [1] | inhibition of growth at 25 ppm [2] | inhibition of growth at 25 ppm [3] | pest or weed control at 25 ppm [4] | inhibition of growth at 25 ppm [5]

COC(=O)N(Cc1ccc(C)cc1C)NC(=O)c1cc(C)nnc1Oc1cccc(C#N)c1 [b-37]
≥ 75%: inhibition of growth at 25 ppm [1] | inhibition of growth at 25 ppm [2] | inhibition of growth at 25 ppm [3] | pest or weed control at 125 ppm [4] | inhibition of growth at 25 ppm [5] | pest or weed control at 125 ppm [6]

COC(=O)N(Cc1ccc(OC)cc1OC)NC(=O)c1cc(C)ncc1Oc1cccc(Br)c1 [b-87]
≥ 75%: inhibition of growth at 25 ppm [1] | inhibition of growth at 25 ppm [2] | inhibition of growth at 25 ppm [3] | inhibition of growth at 25 ppm [5]

COC(=O)N(Cc1ccc(C)cc1C)NC(=O)c1cc(C2CC2)ncc1Oc1cccc(C2CC2)c1F [b-116]
≥ 75%: inhibition of growth at 25 ppm [1] | inhibition of growth at 25 ppm [2] | inhibition of growth at 25 ppm [3] | pest or weed control at 25 ppm [4] | inhibition of growth at 25 ppm [5]

COC(=O)N(Cc1ccc(C)cc1C)NC(=O)c1cc(C#N)ncc1Oc1cccc(C2CC2)c1F [b-119]
≥ 75%: inhibition of growth at 25 ppm [1] | inhibition of growth at 25 ppm [2] | inhibition of growth at 25 ppm [3] | pest or weed control at 25 ppm [4] | inhibition of growth at 25 ppm [5]

COC(=O)N(Cc1ccc(N(C)C)cc1C)NC(=O)c1cc(C)ncc1Oc1cccc(C2CC2)c1F [b-126]
≥ 75%: inhibition of growth at 25 ppm [1] | inhibition of growth at 25 ppm [2] | inhibition of growth at 25 ppm [3] | pest or weed control at 125 ppm [4] | inhibition of growth at 25 ppm [5]

COC(=O)N(Cc1ccc(C#N)cc1C)NC(=O)c1cc(C)ncc1Oc1cccc(C2CC2)c1F [b-128]
≥ 75%: inhibition of growth at 25 ppm [1] | inhibition of growth at 25 ppm [2] | inhibition of growth at 25 ppm [3] | inhibition of growth at 25 ppm [5]

COC(=O)N(Cc1ccc(C)cc1C)NC(=O)c1cc(C)nnc1Oc1cccc([N+](=O)[O-])c1 [b-135]
≥ 75%: inhibition of growth at 25 ppm [1] | inhibition of growth at 25 ppm [2] | inhibition of growth at 25 ppm [3] | pest or weed control at 25 ppm [4] | inhibition of growth at 25 ppm [5]

COC(=O)N(Cc1ccc(C)cc1C)NC(=O)c1cc(C)nnc1Oc1ccccc1 [b-143]
≥ 75%: inhibition of growth at 25 ppm [1] | inhibition of growth at 25 ppm [2] | inhibition of growth at 25 ppm [3] | inhibition of growth at 25 ppm [5]

COC(=O)N(Cc1ccc(OC)cc1C)NC(=O)c1cc(C#N)ncc1Oc1cccc(C2CC2)c1F [b-167]
≥ 75%: inhibition of growth at 25 ppm [1] | inhibition of growth at 25 ppm [2] | inhibition of growth at 25 ppm [3] | inhibition of growth at 25 ppm [5]

COC(=O)N(Cc1ccc(C)cc1C)NC(=O)c1c(Oc2cccc(Cl)c2F)nnc2c1CCC2 [b-175]
≥ 75%: inhibition of growth at 25 ppm [1] | inhibition of growth at 25 ppm [2] | inhibition of growth at 25 ppm [3] | inhibition of growth at 25 ppm [5]

COC(=O)N(Cc1ccc(C)cc1C)NC(=O)c1ccncc1Oc1ccccc1 [b-188]
≥ 75%: inhibition of growth at 25 ppm [1] | inhibition of growth at 25 ppm [2] | inhibition of growth at 25 ppm [3] | pest or weed control at 25 ppm [4] | pest or weed control at 125 ppm [4] | inhibition of growth at 25 ppm [5] | pest or weed control at 125 ppm [6]

COC(=O)N(Cc1ccc(C)cc1C)NC(=O)c1cc(SC)ncc1Oc1cccc(C2CC2)c1F [b-194]
≥ 75%: inhibition of growth at 25 ppm [1] | inhibition of growth at 25 ppm [2] | inhibition of growth at 25 ppm [3] | inhibition of growth at 25 ppm [5]

COC(=O)N(Cc1ccc(C)cc1C)NC(=O)c1c(F)cncc1Oc1cccc(Cl)c1F [b-200]
≥ 75%: inhibition of growth at 25 ppm [1] | inhibition of growth at 25 ppm [2] | inhibition of growth at 25 ppm [3] | pest or weed control at 25 ppm [4] | pest or weed control at 125 ppm [4] | inhibition of growth at 25 ppm [5] | pest or weed control at 125 ppm [6]

COC(=O)N(Cc1ccc(OC)cc1C)NC(=O)c1c(Cl)cncc1Oc1cccc(Cl)c1F [b-207]
≥ 75%: inhibition of growth at 25 ppm [1] | inhibition of growth at 25 ppm [2] | inhibition of growth at 25 ppm [3] | pest or weed control at 25 ppm [4] | pest or weed control at 125 ppm [4] | inhibition of growth at 25 ppm [5] | pest or weed control at 125 ppm [6]

COC(=O)N(Cc1ccc(C)cc1C)NC(=O)c1c(Oc2cccc(C3CC3)c2F)cnc2c1OC(C)(C)CC2 [b-209, Methyl 2-(7-(3-cyclopropyl-2-fluorophenoxy)-2,2-dimethyl-3,4-dihydro-2H-pyrano[3,2-b]pyridine-8-carbonyl)-1-(2,4-dimethylbenzyl)hydrazine-1-carboxylate]
≥ 75%: inhibition of growth at 25 ppm [1] | inhibition of growth at 25 ppm [2] | inhibition of growth at 25 ppm [3] | pest or weed control at 25 ppm [4] | pest or weed control at 125 ppm [4] | inhibition of growth at 25 ppm [5]

CO/N=C/c1cncc(Oc2cccc(C3CC3)c2F)c1C(=O)NN(Cc1ccc(C)cc1C)C(=O)OC [b-214]
≥ 75%: inhibition of growth at 25 ppm [1] | inhibition of growth at 25 ppm [2] | inhibition of growth at 25 ppm [3] | pest or weed control at 125 ppm [4] | inhibition of growth at 25 ppm [5]

COC(=O)N(Cc1ccc(C)cc1C)NC(=O)c1cc(C)nnc1Oc1cccc(Cl)n1 [b-215]
≥ 75%: inhibition of growth at 25 ppm [1] | inhibition of growth at 25 ppm [2] | inhibition of growth at 25 ppm [3] | inhibition of growth at 25 ppm [5]

C=C(OCC)c1cncc(Oc2cccc(C3CC3)c2F)c1C(=O)NN(Cc1ccc(C)cc1C)C(=O)OC [b-217]
≥ 75%: inhibition of growth at 25 ppm [1] | inhibition of growth at 25 ppm [2] | inhibition of growth at 25 ppm [3] | inhibition of growth at 25 ppm [5]
